# From publication PMC4823038 (Oncotarget, 2015)
# Read-outs that look alike come from different tables or passages of the source.
# Tests used:
# [1] = Antitumor study, HT29 human colon tumor xenografts; conditions: female, mouse, in vivo, iv
# Method: (§1) Compound tolerability and pharmacokinetic investigations were carried out in female BALB/c mice (Charles River). Human tumor xenografts were established s.c. in female CRTac:Ncr-Fox1(nu) athymic mice and treated as previously described. […] Initial treatment groups contained from 6 to 10 mice and animals were inspected daily and tumor size and volume measured every 2 or 3 days. Tumor volume and growth delay were determined as previously described.
# [2] = test system: HT29 human colon tumor xenografts; assay: Antitumor study, HT29 human colon tumor xenografts; conditions: HT29
# Method: as §1
# [3] = test system: SW620 colon cancer xenografts; assay: Antitumor study, SW620 colon cancer xenografts; assay type: in vivo, mice
# Method: as §1
# Eμ-Myc driven lymphoma = test system: Eμ-Myc driven lymphoma; parameters: method as in PMID 22120667; conditions: 5mg/kg × 9 days; cited from earlier work
# [4] = test system: Eμ-Myc driven B-cell lymphoma; assay: Eμ-Myc driven transgenic mouse transplant model of B-cell lymphoma; assay type: in vivo, mice; conditions: 150mg/kg p.o. once daily for 9 days
# Description: Transgenic Eμ-Myc mice which develop aggressive infiltrating lymphoma were established and monitored as previously described. To generate transgenic Eμ-Myc driven lymphoma allografts, tumor cells from 3 separate tumors were harvested, cells counted and injected via a tail vein. Six mice were set up per tumor to provide 3 control and 3 treated animals, giving a maximum of 9 mice per treatment group. Animals were monitored daily and continuously using RFID transponders to measure temperature, activity and water consumption as previously described. […] Bone marrow cellularity was also determined to check for tumor cell involvement. All mice were handled in compliance with local and national animal welfare guidelines.
# [5] = Permeability across CaCo2 cell monolayer; assay type: in vitro ADME
# [6] = Tumor drug concentration in HT29 xenografts; assay type: in vivo, mice; conditions: female, CRTac:Ncr-Fox1(nu) athymic, mouse, oral, 24h following 12.5mg/kg p.o., with gemcitabine
# Method: (§2) Human tumor xenografts were established s.c. in female […]) athymic mice and treated as previously described. […] Compounds were extracted from whole blood, plasma and tissue homogenates with methanol-containing internal standards using established protocols. Drug concentrations were determined using liquid chromatography/tandem mass spectrometry (LC/MS-MS) and pharmacokinetics were calculated using Pharsight WinNonLin software (version 5.2.1) as previously described.
# [7] = test system: four human tumor cell lines; assay: SRB cytotoxicity, range over four cell lines; assay type: cell-based; conditions: read-out: GI50 single-agent, range
# [8] = test system: pS296 CHK1 in HT29 tumor xenografts; assay: PK-PD biomarker study in HT29 tumor xenografts; assay type: in vivo, mice; conditions: 50 or 100mg/kg p.o. 24h after gemcitabine 100mg/kg i.v.; P < 0.05
# Method: (§3) Western blotting was carried out as described. ELISA assays for pS296 CHK1 and total CHK1 were developed and validated for use in vitro and in tumor homogenates. Tumor samples for ELISA and western blotting were lysed in CHAPS buffer (1% CHAPS in 150mM NaCl, 50mM Tris-HCl pH 8.0, 1mM EDTA, 0.2mM PMSF and 1:50 Sigma Phosphatase inhibitors 2 and 3 and 1:100 Sigma protease cocktail) and immunoblotted. ELISA assays were based on commercially available kits with modifications (Cell Signalling Technologies). For pS296 CHK1 detection the commercial pS317 CHK1 antibody was replaced with a pS296 CHK1 antibody (Cell Signalling Technology). Xenograft tumor homogenate was added in duplicate to 96 well plates (100μl containing 40ug protein) and quantification of the colorimetric readout was determined at 450nm using a PerkinElmer 2103 EnVision Multilabel plate reader.
# Plasma protein binding = assay type: in vitro ADME; conditions: mouse, nude mice
# [9] = test system: pS296 CHK1 in HT29 colon tumor cells; assay: Western blot of gemcitabine-induced biomarkers in cells; assay type: cell-based, human; conditions: added to gemcitabine
# Method: as §3
# [10] = test system: HT29 colon carcinoma cells; assay: Cell cycle analysis (BrdU/PI); assay type: cell-based, human
# Description: Cell cycle analysis using propidium iodide and bromodeoxyuridine staining was as described.
# [11] = Pharmacokinetics in BALB/c mice; assay type: in vivo; conditions: for bioavailability: BALB/c, 10mg/kg p.o. vs i.v., read-out: oral bioavailability (F)
# Method: as §2
# SW620 = assay: Mitosis induction assay (MIA), abrogation of etoposide-induced G2 checkpoint; assay type: cell-based; conditions: Homo sapiens, SW-620, mean±SD
# Method: (§4) Assays were performed as described. […] Inhibition of intracellular CHK1 activity was measured using a cell based ELISA for the abrogation of an etoposide induced G2 checkpoint (mitosis induction assay, MIA [24]). The IC50 for G2 checkpoint abrogation (MIA) was determined in the presence of nocodazole using UCN01 as a positive control. […] PI values > 1 indicate potentiation of the genotoxic activity.
# Calu6 = assay: as above; assay type: cell-based; conditions: Homo sapiens, Calu-6, mean±SD
# Method: as §4
# HT29 = assay: as above; assay type: cell-based; conditions: Homo sapiens, HT-29, mean±SD
# Method: as §4
# [12] = test system: pS296 CHK1 in Calu6 xenograft tumors; assay: PD biomarkers in Calu6 xenograft tumors (western blot); assay type: in vivo, mice; conditions: Calu6 xenografts, 6h after last dose of CCT245737 150mg/kg p.o.
# Method: as §3
# [13] = test system: Calu6 RAS mutant NSCLC human tumor xenograft; assay: Antitumor study, Calu6 RAS mutant NSCLC xenografts; assay type: in vivo, mice
# Method: Compound tolerability and pharmacokinetic investigations were carried out in female BALB/c mice (Charles River). Human tumor xenografts were established s.c. in female CRTac:Ncr-Fox1(nu) athymic mice and treated as previously described [24, 28]. […] Initial treatment groups contained from 6 to 10 mice and animals were inspected daily and tumor size and volume measured every 2 or 3 days. Tumor volume and growth delay were determined as previously described [28].
# [14] = test system: cellular CHK1 activity, four cell lines; assay: MIA, range over four cell lines; assay type: cell-based; conditions: Homo sapiens, read-out: IC50 for cellular CHK1 inhibition (MIA), range
# Method: as §4
# CHK2 = molecular target: T1, CHK2 (Homo sapiens, UniProt O96017); assay: CHK2 kinase IC50 determination (Z'-Lyte); assay type: biochemical
# T1 construct: purchased Invitrogen
# T1 sequence (O96017 whole entry): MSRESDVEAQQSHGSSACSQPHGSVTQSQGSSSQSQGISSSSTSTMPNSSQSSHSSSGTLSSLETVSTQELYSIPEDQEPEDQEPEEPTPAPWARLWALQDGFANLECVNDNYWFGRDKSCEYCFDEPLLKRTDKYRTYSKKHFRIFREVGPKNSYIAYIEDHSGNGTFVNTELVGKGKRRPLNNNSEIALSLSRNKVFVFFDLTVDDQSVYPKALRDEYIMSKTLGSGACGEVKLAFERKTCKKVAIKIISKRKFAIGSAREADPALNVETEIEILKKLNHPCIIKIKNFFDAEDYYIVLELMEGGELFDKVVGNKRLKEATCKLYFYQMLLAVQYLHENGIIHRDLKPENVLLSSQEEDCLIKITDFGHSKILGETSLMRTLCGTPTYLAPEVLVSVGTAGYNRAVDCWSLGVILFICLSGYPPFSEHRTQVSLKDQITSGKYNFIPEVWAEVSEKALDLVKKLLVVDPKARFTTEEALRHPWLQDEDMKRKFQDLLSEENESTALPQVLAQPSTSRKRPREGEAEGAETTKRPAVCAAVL
# Method: (§5) Other kinase IC50 determinations for CHK2 and FLT3 were performed using a commercial assay (Z'-Lyte, Invitrogen) or in-house with recombinant human CHK1 on a LabChip® EZ Reader II (PerkinElmer) or CDK1 in a DELFIA assay (PerkinElmer).
# CDK1 = CDK1 (Homo sapiens, UniProt P06493); assay: CDK1 kinase IC50 determination (DELFIA / 33P radiometric); assay type: biochemical
# Sequence of CDK1 (P06493 whole entry): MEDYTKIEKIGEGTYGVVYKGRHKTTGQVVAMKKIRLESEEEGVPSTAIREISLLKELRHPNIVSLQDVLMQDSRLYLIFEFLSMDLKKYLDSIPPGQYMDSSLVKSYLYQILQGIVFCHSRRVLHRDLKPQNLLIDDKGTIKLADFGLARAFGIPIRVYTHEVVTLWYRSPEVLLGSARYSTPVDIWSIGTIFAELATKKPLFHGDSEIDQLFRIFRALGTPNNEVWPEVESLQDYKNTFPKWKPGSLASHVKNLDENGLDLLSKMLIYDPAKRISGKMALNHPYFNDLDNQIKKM
# Sequence of CDK1 (P14635 whole entry partner): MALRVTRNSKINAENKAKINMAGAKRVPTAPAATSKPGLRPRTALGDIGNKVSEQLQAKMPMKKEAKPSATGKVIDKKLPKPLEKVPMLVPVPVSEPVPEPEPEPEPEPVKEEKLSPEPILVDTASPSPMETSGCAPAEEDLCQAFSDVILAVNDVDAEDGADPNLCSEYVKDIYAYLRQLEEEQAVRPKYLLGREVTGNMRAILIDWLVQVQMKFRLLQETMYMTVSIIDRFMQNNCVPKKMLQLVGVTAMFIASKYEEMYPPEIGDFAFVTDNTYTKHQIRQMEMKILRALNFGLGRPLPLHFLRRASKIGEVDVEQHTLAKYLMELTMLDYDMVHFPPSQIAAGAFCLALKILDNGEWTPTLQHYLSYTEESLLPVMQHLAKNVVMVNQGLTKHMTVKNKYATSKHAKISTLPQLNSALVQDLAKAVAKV
# Method: as §5
# 124 human kinases = assay: 33P radiometric kinase profiling; assay type: biochemical; conditions: 10μM, 124 kinases, ATP at Km
smiles,measurement,setting,value
Nc1ccn([C@@H]2O[C@H](CO)[C@@H](O)C2(F)F)c(=O)n1 [gemcitabine],MTD,[1],200 mg/kg
same,growth delay,"[2]; alone, 100mg/kg i.v. days 0,7,14, mean±SD (Figure 3A)",-0.6 ± 2.7 days
same,growth delay,[2]; gemcitabine alone at the MTD of 200mg/kg i.v. (Figure 3B),6 days
same,growth delay,"[2]; gemcitabine alone, fixed dose 100mg/kg i.v. (Figure 3B)",3 days
same,growth delay,"[3]; gemcitabine alone 100mg/kg i.v. days 0,4,8",1.5 ± 2.3 days
CN[C@@H]1C[C@H]2O[C@@](C)([C@@H]1OC)n1c3ccccc3c3c4c(c5c6ccccc6n2c5c31)C(=O)N[C@H]4O [UCN01],antitumor activity in Eμ-Myc model,Eμ-Myc driven lymphoma,clear evidence of tumor growth inhibition
same,blood cell count,Eμ-Myc driven lymphoma,decreased blood cell count
"N#Cc1cnc(Nc2cc(NC[C@H]3CNCCO3)c(C(F)(F)F)cn2)cn1 [CCT245737, (R)-5-((4-((morpholin-2-ylmethyl)amino)-5-(trifluoromethyl)pyridin-2-yl)amino)pyrazine-2-carbonitrile]","effects on normal tissues (lung, bone marrow, kidney)",[4],minimal effects
same,tolerability (body weights),[4],well tolerated
same,"weight of inguinal, brachial/axillary and mesenteric lymph nodes vs vehicle",[4]; P < 0.05,significantly reduced
same,spleen weight,[4]; p < 0.01,increased significantly
same,Papp,"[5]; human, Caco-2, CaCo2 cell monolayer, read-out: cell permeability Pe",25 ×10⁻⁶ cm/s
same,active efflux by PGP,[5]; no asymmetry apical > basal or basal > apical,not a substrate for active efflux by PGP
same,concentration at 24 h,[6],≥ 3000 nM
same,GI50,[7],410 to 5400 nM
same,gemcitabine-induced pS296 CHK1 signal in tumor,[8],significantly reduced
same,fraction unbound at 10 μM,Plasma protein binding,0.244
same,concentration causing marked loss of pS296 signal,[9],≥ 0.5 μM
same,concentration giving complete inhibition of pS296 signal,[9],≥ 2 μM
same,effect on etoposide-induced G2/M block,"[10]; after etoposide 50μM × 1h, increasing concentrations, 24h",abrogated this G2/M block
same,"effect on cell cycle distribution, alone",[10]; up to 0.5μM for 24h,minimal effects
same,kinetics in whole blood (AUC vs dose),[11]; BALB/c mice,linear kinetics
same,plasma clearance,"[11]; BALB/c mice, 10mg/kg i.v.",35 mL/min/kg
same,volume of distribution,"[11]; BALB/c mice, 10mg/kg i.v.",0.19 L
same,half-life,"[11]; BALB/c mice, 10mg/kg i.v., plasma",2.86 h
same,bioavailability,"[11]; female, plasma, oral, mouse",100%
same,bioavailability,"[11]; female, plasma, po, mouse",105%
same,Kp,"[11]; female, mouse, spleen, other: both routes of administration (i.v. and p.o.), 10 mg/kg, BALB/c mice, both routes of administration, read-out: spleen concentration relative to plasma",10 to 25
same,IC50,SW620,220 ± 47 nM
same,IC50,Calu6,84 ± 7 nM
same,IC50,HT29,30 ± 12 nM
same,gemcitabine + carboplatin induced pS296 CHK1 signal in tumor,[12],completely abolished
same,increase in tumor growth delay,"[13]; CCT245737 150mg/kg p.o. added to gemcitabine 100mg/kg i.v. + carboplatin 5mg/kg i.p., P < 0.001",9 days
same,weight loss,"[13]; combination with gemcitabine + carboplatin, nadir on day 3",2%
same,growth delay,"[2]; alone, 150mg/kg p.o. days 1,2,5,6,9,10 (irinotecan study), mean±SD",1.0 ± 1.0 days
same,growth delay,"[2]; alone, 150mg/kg p.o. days 1,2,8,9,15,16, mean±SD",0.3 ± 3.4 days
same,IC50,[14],30 to 220 nM
same,IC50,CHK2,9030 nM
same,IC50,CDK1,1260 to 2440 nM
same,number of kinases (including CHK1) with > 80% inhibition,124 human kinases,12 kinases
same,body weight loss,"[3]; combination with gemcitabine, day 9",4.3%
CCc1c2c(nc3ccc(OC(=O)N4CCC(N5CCCCC5)CC4)cc13)-c1cc3c(c(=O)n1C2)COC(=O)[C@]3(O)CC [irinotecan],growth delay,"[2]; alone, 25mg/kg i.p. days 0,4,8, mean±SD, n = 6",6.2 ± 4.6 days
